Test results reported in ChEMBL document CHEMBL4396913, “Synthesis and biological evaluation of hybrid quinolone-based quaternary ammonium antibacterial agents” (Eur J Med Chem, 2019).
≈ marks a conversion by molar mass, not a printed value.

Key:
[1] = tested on: Staphylococcus epidermidis; assay: Antibacterial activity against Staphylococcus epidermidis ATCC 14990 cultured in MH medium assessed as reduction in bacterial growth incubated for 48 hrs by microbroth dilution method; type: functional; details: ATCC 14990, 48 h
[2] = tested on: Proteus vulgaris; assay: Antibacterial activity against Proteus vulgaris NCTC 4635 cultured in MH medium assessed as reduction in bacterial growth incubated for 48 hrs by microbroth dilution method; type: functional; details: NCTC 4635, 48 h
[3] = tested on: Staphylococcus aureus; assay: Bactericidal activity against Staphylococcus aureus ATCC 6538 cultured in MH medium assessed as reduction in bacterial survival incubated for 48 hrs by microbroth dilution method; type: functional; details: ATCC 6538, 48 h
[4] = tested on: Proteus vulgaris; assay: Bactericidal activity against Proteus vulgaris NCTC 4635 cultured in MH medium assessed as reduction in bacterial survival incubated for 48 hrs by microbroth dilution method; type: functional; details: NCTC 4635, 48 h
[5] = tested on: Serratia marcescens; assay: Antibacterial activity against Serratia marcescens ATCC 12795 cultured in MH medium assessed as reduction in bacterial growth incubated for 48 hrs by microbroth dilution method; type: functional; details: ATCC 12795, 48 h
[6] = tested on: Escherichia coli; assay: Bactericidal activity against Escherichia coli ATCC 8739 cultured in MH medium assessed as reduction in bacterial survival incubated for 48 hrs by microbroth dilution method; type: functional; details: ATCC 8739, 48 h
[7] = tested on: Staphylococcus aureus; assay: Bactericidal activity against methicillin resistant Staphylococcus aureus N315 cultured in MH medium assessed as reduction in bacterial survival incubated for 48 hrs by microbroth dilution method; type: functional; details: N315, 48 h
[8] = tested on: Bacillus spizizenii; assay: Bactericidal activity against Bacillus subtilis ATCC 6633 cultured in MH medium assessed as reduction in bacterial survival incubated for 48 hrs by microbroth dilution method; type: functional; details: ATCC 6633, 48 h
[9] = tested on: Serratia marcescens; assay: Bactericidal activity against Serratia marcescens ATCC 12795 cultured in MH medium assessed as reduction in bacterial survival incubated for 48 hrs by microbroth dilution method; type: functional; details: ATCC 12795, 48 h
[10] = tested on: Escherichia coli; assay: Antibacterial activity against […] Escherichia coli ATCC 8739 assessed as reduction in bacterial growth incubated for 48 hrs in presence of 50 ug/ml […], PAbetaN by microbroth dilution method; type: functional; details: ATCC 8739, 48 h
[11] = tested on: Escherichia coli; assay: Antibacterial activity against Escherichia coli ATCC 8739 cultured in MH medium assessed as reduction in bacterial growth incubated for 48 hrs by microbroth dilution method; type: functional; details: ATCC 8739, 48 h
[12] = tested on: Streptococcus pneumoniae; assay: Antibacterial activity against Streptococcus pneumoniae cultured in MH medium assessed as reduction in bacterial growth incubated for 48 hrs by microbroth dilution method; type: functional
[13] = tested on: Bacillus spizizenii; assay: Antibacterial activity against Bacillus subtilis ATCC 6633 cultured in MH medium assessed as reduction in bacterial growth incubated for 48 hrs by microbroth dilution method; type: functional; details: ATCC 6633, 48 h
[14] = tested on: Escherichia coli; assay: Bactericidal activity against […] Escherichia coli ATCC 8739 assessed as reduction in bacterial survival incubated for 48 hrs in presence of 50 ug/ml […], PAbetaN by microbroth dilution method; type: functional; details: ATCC 8739, 48 h
[15] = tested on: HEK293; assay: Cytotoxicity against human HEK293 cells assessed as cell viability upto 20 uM incubated for 72 hrs by MTT assay; type: cell-based; details: hek293, 72 h
[16] = tested on: Pseudomonas aeruginosa; assay: Antibacterial activity against Pseudomonas aeruginosa ATCC 9027 cultured in MH medium assessed as reduction in bacterial growth incubated for 48 hrs by microbroth dilution method; type: functional; details: ATCC 9027, 48 h
[17] = tested on: Enterococcus hirae; assay: Antibacterial activity against Enterococcus hirae ATCC 1052 cultured in BHI medium assessed as reduction in bacterial growth incubated for 48 hrs by microbroth dilution method; type: functional; details: ATCC 1052, 48 h
[18] = tested on: Streptococcus pneumoniae; assay: Bactericidal activity against Streptococcus pneumoniae cultured in MH medium assessed as reduction in bacterial survival incubated for 48 hrs by microbroth dilution method; type: functional
[19] = Lipophilicity, log k of the compound at 100 ug/ml by micellar electrokinetic chromatography; type: physicochemical
[20] = tested on: HEK293; assay: Cytotoxicity against human HEK293 cells assessed as changes in cell morphology upto 20 uM incubated for 72 hrs by MTT assay; type: cell-based; details: hek293, 72 h
[21] = tested on: Staphylococcus epidermidis; assay: Bactericidal activity against methicillin resistant Staphylococcus epidermidis ATCC 13199 cultured in MH medium assessed as reduction in bacterial survival incubated for 48 hrs by microbroth dilution method; type: functional; details: ATCC 13199, 48 h
[22] = tested on: Staphylococcus epidermidis; assay: Antibacterial activity against methicillin resistant Staphylococcus epidermidis ATCC 13199 cultured in MH medium assessed as reduction in bacterial growth incubated for 48 hrs by microbroth dilution method; type: functional; details: ATCC 13199, 48 h
[23] = tested on: Staphylococcus aureus; assay: Antibacterial activity against methicillin resistant Staphylococcus aureus N315 cultured in MH medium assessed as reduction in bacterial growth incubated for 48 hrs by microbroth dilution method; type: functional; details: N315, 48 h
[24] = tested on: Staphylococcus aureus; assay: Antibacterial activity against methicillin resistant Staphylococcus aureus 6347 cultured in MH medium assessed as reduction in bacterial growth incubated for 48 hrs by microbroth dilution method; type: functional; details: Staphylococcus aureus, 6347, 48 h
[25] = tested on: Pseudomonas aeruginosa; assay: Bactericidal activity against Pseudomonas aeruginosa ATCC 9027 cultured in MH medium assessed as reduction in bacterial survival incubated for 48 hrs by microbroth dilution method; type: functional; details: ATCC 9027, 48 h
[26] = tested on: Staphylococcus aureus; assay: Antibacterial activity against Staphylococcus aureus ATCC 6538 cultured in MH medium assessed as reduction in bacterial growth incubated for 48 hrs by microbroth dilution method; type: functional; details: ATCC 6538, 48 h
[27] = tested on: Staphylococcus epidermidis; assay: Bactericidal activity against Staphylococcus epidermidis ATCC 14990 cultured in MH medium assessed as reduction in bacterial survival incubated for 48 hrs by microbroth dilution method; type: functional; details: ATCC 14990, 48 h
[28] = tested on: Staphylococcus aureus; assay: Bactericidal activity against methicillin resistant Staphylococcus aureus 6347 cultured in MH medium assessed as reduction in bacterial survival incubated for 48 hrs by microbroth dilution method; type: functional; details: Staphylococcus aureus, 6347, 48 h
[29] = tested on: Staphylococcus aureus; assay: Biofilm degradation activity against Staphylococcus aureus ATCC 6538 assessed as biofilm formation at 4 times antibacterial MIC incubated for 24 hrs compound added post-biofilm formation by total biomass crystal violet staining-based method; type: functional
[30] = tested on: Pseudomonas aeruginosa; assay: Antibiofilm activity against Pseudomonas aeruginosa ATCC 9027 assessed as biofilm formation at 0.5 times antibacterial MIC incubated for 24 hrs compound added prior to bacterial biofilm formation by total biomass crystal violet staining-based method relative to control; type: functional
[31] = tested on: Staphylococcus aureus; assay: Antibiofilm activity against Staphylococcus aureus ATCC 6538 assessed as biofilm formation at antibacterial MIC incubated for 24 hrs compound added prior to bacterial biofilm formation by total biomass crystal violet staining-based method relative to control; type: functional
[32] = tested on: Pseudomonas aeruginosa; assay: Biofilm degradation activity against Pseudomonas aeruginosa ATCC 9027 assessed as biofilm formation at 4 times antibacterial MIC incubated for 24 hrs compound added post-biofilm formation by total biomass crystal violet staining-based method; type: functional
[33] = tested on: Staphylococcus aureus; assay: Biofilm degradation activity against Staphylococcus aureus ATCC 6538 assessed as biofilm formation at antibacterial MIC incubated for 24 hrs compound added post-biofilm formation by total biomass crystal violet staining-based method; type: functional
[34] = tested on: Pseudomonas aeruginosa; assay: Biofilm degradation activity against Pseudomonas aeruginosa ATCC 9027 assessed as biofilm formation at 2 times antibacterial MIC incubated for 24 hrs compound added post-biofilm formation by total biomass crystal violet staining-based method; type: functional
[35] = tested on: Pseudomonas aeruginosa; assay: Biofilm degradation activity against Pseudomonas aeruginosa ATCC 9027 assessed as biofilm formation at antibacterial MIC incubated for 24 hrs compound added post-biofilm formation by total biomass crystal violet staining-based method; type: functional
[36] = tested on: Staphylococcus aureus; assay: Biofilm degradation activity against Staphylococcus aureus ATCC 6538 assessed as biofilm formation at 2 times antibacterial MIC incubated for 24 hrs compound added post-biofilm formation by total biomass crystal violet staining-based method; type: functional
[37] = tested on: Pseudomonas aeruginosa; assay: Antibiofilm activity against Pseudomonas aeruginosa ATCC 9027 assessed as biofilm formation at antibacterial MIC incubated for 24 hrs compound added prior to bacterial biofilm formation by total biomass crystal violet staining-based method relative to control; type: functional
[38] = tested on: Staphylococcus aureus; assay: Antibiofilm activity against Staphylococcus aureus ATCC 6538 assessed as biofilm formation at 0.5 times antibacterial MIC incubated for 24 hrs compound added prior to bacterial biofilm formation by total biomass crystal violet staining-based method relative to control; type: functional
[39] = tested on: Enterococcus hirae; assay: Bactericidal activity against Enterococcus hirae ATCC 1052 cultured in BHI medium assessed as reduction in bacterial survival incubated for 48 hrs by microbroth dilution method; type: functional; details: ATCC 1052, 48 h

SMILES: COc1c(N2CC[N+]3(CN4C(=N3)C(C(=O)O)=Cc3ccccc34)C(C)C2)c(F)cc2c(=O)c(C(=O)O)cn(C3CC3)c12.[Cl-] (stereo unspecified)
- MIC [1]: 32 µg/mL
- MIC [2]: 4 µg/mL
- MBC [3]: 16 µg/mL
- MBC [4]: 4 µg/mL
- MIC [5]: 64 µg/mL
- MBC [6]: 0.5 µg/mL
- MBC [7]: 32 µg/mL
- MBC [8]: 32 µg/mL
- MBC [9]: 64 µg/mL
- MIC [10]: 0.125 µg/mL
- MIC [11]: 0.25 µg/mL
- MIC [12]: 128 µg/mL
- MIC [13]: 32 µg/mL
- MBC [14]: 0.5 µg/mL
- Activity [15]: Non-Toxic
- MIC [16]: 128 µg/mL
- MIC [17]: > 512 µg/mL
- MBC [18]: 256 µg/mL
- log K [19]: -0.1255
- Activity [20]: Non-Toxic
- MBC [21]: 8 µg/mL
- MIC [22]: 4 µg/mL
- MIC [23]: 32 µg/mL
- MIC [24]: 16 µg/mL
- MBC [25]: 128 µg/mL
- MIC [26]: 16 µg/mL
- MBC [27]: 32 µg/mL
- MBC [28]: 16 µg/mL

SMILES: CCn1cc(C(=O)O)c(=O)c2cc(F)c(N3CCNC(C)C3)c(F)c21 (stereo unspecified) [LOMEFLOXACIN]
- MIC [1]: 1 µg/mL (≈ 2.85 µM)
- Activity [29]: 6%
- MIC [2]: 0.008 µg/mL (≈ 0.0228 µM)
- MBC [3]: 1 µg/mL (≈ 2.85 µM)
- MBC [4]: 0.008 µg/mL (≈ 0.0228 µM)
- MIC [5]: 0.5 µg/mL (≈ 1.42 µM)
- MBC [6]: 0.125 µg/mL (≈ 0.356 µM)
- Activity [30]: 6%
- MBC [7]: 1 µg/mL (≈ 2.85 µM)
- MBC [8]: 0.125 µg/mL (≈ 0.356 µM)
- MBC [9]: 0.5 µg/mL (≈ 1.42 µM)
- MIC [11]: 0.063 µg/mL (≈ 0.179 µM)
- MIC [12]: 16 µg/mL (≈ 45.5 µM)
- MIC [13]: 0.125 µg/mL (≈ 0.356 µM)
- Activity [31]: 9%
- MIC [16]: 1 µg/mL (≈ 2.85 µM)
- MIC [17]: 128 µg/mL (≈ 364 µM)
- Activity [32]: 34%
- MBC [18]: > 512 µg/mL
- log K [19]: 0.0766
- Activity [33]: 58%
- Activity [34]: 36%
- Activity [35]: 40%
- MBC [21]: 0.25 µg/mL (≈ 0.712 µM)
- MIC [22]: 0.25 µg/mL (≈ 0.712 µM)
- MIC [23]: 0.5 µg/mL (≈ 1.42 µM)
- Activity [36]: 12%
- Activity [37]: 2%
- MIC [24]: 0.5 µg/mL (≈ 1.42 µM)
- MBC [25]: 1 µg/mL (≈ 2.85 µM)
- MIC [26]: 1 µg/mL (≈ 2.85 µM)
- Activity [38]: 63%
- MBC [39]: 128 µg/mL (≈ 364 µM)
- MBC [27]: 2 µg/mL (≈ 5.69 µM)
- MBC [28]: 1 µg/mL (≈ 2.85 µM)

SMILES: CCn1cc(C(=O)O)c(=O)c2cc(F)c(N3CC[N+]4(CC3)CN3C(C)=CC(C)=C(C(=O)O)C3=N4)nc21.[Cl-]
- MIC [1]: 128 µg/mL
- MIC [2]: 1 µg/mL
- MBC [3]: 128 µg/mL
- MBC [4]: 2 µg/mL
- MIC [5]: 64 µg/mL
- MBC [6]: 16 µg/mL
- MBC [7]: 128 µg/mL
- MBC [8]: 16 µg/mL
- MBC [9]: 128 µg/mL
- MIC [10]: 4 µg/mL
- MIC [11]: 8 µg/mL
- MIC [12]: > 512 µg/mL
- MIC [13]: 16 µg/mL
- MBC [14]: 16 µg/mL
- Activity [15]: Non-Toxic
- MIC [16]: 512 µg/mL
- MIC [17]: 16 µg/mL
- log K [19]: -0.3984
- Activity [20]: Non-Toxic
- MBC [21]: 128 µg/mL
- MIC [22]: 64 µg/mL
- MIC [23]: 128 µg/mL
- MIC [24]: 128 µg/mL
- MBC [25]: 512 µg/mL
- MIC [26]: 128 µg/mL
- MBC [39]: 32 µg/mL
- MBC [27]: 128 µg/mL
- MBC [28]: 128 µg/mL
